Reference: patent US8076286B2, “Antimicrobial peptides and use thereof” (priority 2006, dated 2011)
Ends that are not written are not given here.

Assays:
Erythrocytes = experiment: Hemolysis assay; format: cell-based; conditions: % of Triton X-100 induced hemolysis; 1 h at 37° C.; peptides 3-60 μM, concentration for table not stated
Procedure: EDTA-blood was centrifuged at 800 g for 10 min, whereafter plasma and buffy coat were removed. The erythrocytes were washed three times and resuspended in 5% PBS, pH 7.4. The cells were then incubated with end-over-end rotation for 1 h at 37° C. in the presence of peptides (3-60 μM). 2% Triton X-100 (Sigma-Aldrich) served as positive control. The samples were then centrifuged at 800 g for 10 min. The absorbance of hemoglobin release was measured at λ 540 nm and is in the plot expressed as % of TritonX-100 induced hemolysis (FIG. 2).

[1] = Liposome leakage assay (carboxyfluorescein), PA liposomes; format: biochemical; conditions: dioleoylphosphatidylcholine 30/dioleoylphosphatidic acid 30/cholesterol 40 mol % liposomes, unit not in table; for CF leakage PA + NaCl: 10 mM Tris pH 7.4, with 150 mM NaCl; for CF leakage PA − NaCl: 10 mM Tris pH 7.4, without NaCl
Procedure: (§1) Dry lipid films were prepared by dissolving either dioleoylphosphatidylcholine (Avanti Polar Lipids, Alabaster, Ala.) (60 mol %) and cholesterol (Sigma, St Louis, Mo.) (40 mol %), or dioleoylphosphatidylcholine (30 mol %), dioleoylphosphatidic acid (Avanti Polar Lipids, Alabaster, Ala.) (30 mol %) and cholesterol (40 mol %) in chloroform, and then removing the solvent by evaporation under vacuum overnight. Subsequently, buffer solution containing 10 mM Tris, pH 7.4, either with or without additional 150 mM NaCl, was added together with 0.1 M carboxyfluorescein (CF) (Sigma, St Louis, Mo.). After hydration, the lipid mixture was subjected to eight freeze-thaw cycles consisting of freezing in liquid nitrogen and heating to 60° C. Unilamellar liposomes with a diameter of about 130 nm (as found with cryo-TEM; results not shown) were generated by multiple extrusions through polycarbonate filters (pore size 100 nm) mounted in a LipoFast miniextruder (Avestin, Ottawa, Canada). Untrapped carboxyfluorescein was then removed by filtration through two subsequent Sephadex G-50 columns with the relevant Tris buffer as eluent. Both extrusion and filtration was performed at 22° C. In the liposome leakage assay, the well known self-quenching of CF was used. Thus, at 100 mM CF is self-quenched, and the recorded fluorescence intensity from liposomes with entrapped CF is low. […] The CF release was determined by monitoring the emitted fluorescence at 520 nm from a liposome dispersion, ([…] in 10 mM Tris pH 7.4). An absolute leakage scale is obtained by disrupting the liposomes at the end of the experiment through addition of 0.8 mM Triton X100 (Sigma, St Louis, Mo.), thereby causing 100% release and dequenching of CF. A SPEX-fluorolog 1650 0.22-m double spectrometer (SPEX Industries, Edison, N.J.) was used for the liposome leakage assay (see Table 3, FIG. 3).

[2] = Liposome leakage assay (carboxyfluorescein), PC liposomes; format: biochemical; conditions: dioleoylphosphatidylcholine 60 mol %/cholesterol 40 mol % liposomes, scale 100% = Triton X100 release, unit not in table; for CF leakage PC + NaCl: 10 mM Tris pH 7.4, with 150 mM NaCl; for CF leakage PC − NaCl: 10 mM Tris pH 7.4, without NaCl
Procedure: as §1

[3] = CD-spectroscopy, helical content; format: physicochemical; conditions: 10 mM Tris, pH 7.4, 37° C., peptide 10 μM; for Helical content, PA: PA liposome dispersion; for Helical content, PA / Helical content, PC: lipid 100 μM; for Helical content, PC: PC liposome dispersion; for Helical content, Buffer: buffer only
Procedure: The CD spectra of the peptides in solution were measured on a Jasco J-810 Spectropolarimeter (Jasco, U.K.). The measurements were performed at 37° C. in a 10 mm quartz cuvet under stirring and the peptide concentration was 10 μM. The effect of on peptide secondary structure of liposomes at a lipid concentration of 100 μM was monitored in the range 200-250 nm. The only peptide conformations observed under the conditions investigated were α-helix and random coil. The fraction of the peptide in α-helical conformation, Xα, is calculated from Xα=(A−Ac)/(Aα−Ac) (1)
where A is the recorded CD signal at 225 nm, and Aα and Ac are the CD signal at 225 nm for a reference peptide in 100% α-helix and 100% random coil conformation, respectively. 100% α-helix and 100% random coil references were obtained from 0.133 mM (monomer concentration) poly-L-lysine in 0.1 M NaOH and 0.1 M HCl, respectively. To account for the instrumental differences between measurements the background value (detected at 250 nm, where no peptide signal is present) was subtracted. Signals from the bulk solution were also corrected for (see Table 4).

S.aureus ATCC 29213 = experiment: Radial diffusion assay (RDA), S. aureus; format: cell-based, Staphylococcus aureus; conditions: zone of bacterial clearance in RDA; unit mm only in FIG. 1 legend, not in Table 2A
Procedure: (§2) Escherichia coli ATCC25922, Pseudomonas aeruginosa ATCC27853, Staphylococcus aureus ATCC29213, Bacillus subtilis ATCC6633 bacterial isolates, and the fungal isolate Candida albicans ATCC90028, were obtained from the Department of Bacteriology, Lund University Hospital.
(§3) Radial diffusion assays (RDA) were performed essentially as described earlier (Lehrer, R. I., Rosenman, M., Harwig, S. S., Jackson, R. & Eisenhauer, P. (1991) Ultrasensitive assays for endogenous antimicrobial polypeptides, J Immunol Methods. 137, 167-73.).
(§4) Briefly, bacteria (E. coli, P. aeruginosa, S. aureus, B. subtilis) or fungi (C. albicans) were grown to mid-logarithmic phase in 10 ml of full-strength (3% w/v) trypticase soy broth (TSB) (Becton-Dickinson, Cockeysville, Md.). The microorganisms were washed once with 10 mM Tris, pH 7.4. 4×10^6 bacterial cfu or 1×10^5 fungal cfu was added to 5 ml of the underlay agarose gel, consisting of 0.03% (w/v) TSB, 1% (w/v) low-electroendoosmosistype (Low-EEO) agarose (Sigma, St Louise Mo.) and a final concentration of 0.02% (v/v) Tween 20 (Sigma). The underlay was poured into a Ø85 mm petri dish. After agarose solidified, 4 mm-diameter wells were punched and 6 μl of test sample was added to each well. Plates were incubated at 37° C. for 3 hours to allow diffusion of the peptides. […]

E.coli ATCC 25922 = experiment: Radial diffusion assay (RDA), E. coli; format: cell-based, Escherichia coli; conditions: zone of bacterial clearance in RDA; unit mm only in FIG. 1 legend, not in Table 2A
Procedure: as §2, §3, §4

[4] = Antimicrobial activity stated in text, microorganism not specified; format: cell-based; conditions: statement in words, no organism or method given

Row | Molecule | Erythrocytes Hemolysis (%) Mean (Erythrocytes) [%] | CF leakage PA + NaCl [1] [%] | CF leakage PA − NaCl [1] [%] | CF leakage PC + NaCl [2] [%] | CF leakage PC − NaCl [2] [%] | Helical content, PA [3] [%] | Helical content, PC [3] [%] | Helical content, Buffer [3] [%] | Bacteria S.aureus ATCC 29213 Mean (S.aureus ATCC 29213) [mm] | Bacteria E.coli ATCC 25922 Mean (E.coli ATCC 25922) [mm] | antimicrobial effect [4]
1 | CC[C@H](C)[C@H](NC(=O)[C@H](CCCCN)NC(=O)[C@H](CCC(=O)O)NC(=O)[C@H](CCCCN)NC(=O)[C@H](CO)NC(=O)[C@H](CCCCN)NC(=O)[C@H](CCCNC(=N)N)NC(=O)[C@H](Cc1ccccc1)NC(=O)[C@H](Cc1ccccc1)NC(=O)[C@H](CC(=O)O)NC(=O)CNC(=O)[C@H](CC(C)C)NC(=O)[C@@H](N)CC(C)C)C(=O)NCC(=O)N[C@@H](CCCCN)C(=O)N[C@@H](CCC(=O)O)C(=O)N[C@@H](Cc1ccccc1)C(=O)N[C@@H](CCCCN)C(=O)N[C@@H](CCCNC(=N)N)C(=O)N[C@H](C(=O)N[C@H](C(=O)N[C@@H](CCC(N)=O)C(=O)N[C@@H](CCCNC(=N)N)C(=O)N[C@H](C(=O)N[C@@H](CCCCN)C(=O)N[C@@H](CC(=O)O)C(=O)N[C@@H](Cc1ccccc1)C(=O)N[C@@H](CC(C)C)C(=O)N[C@@H](CCCNC(=N)N)C(=O)N[C@@H](CC(N)=O)C(=O)N[C@@H](CC(C)C)C(=O)N[C@H](C(=O)N1CCC[C@H]1C(=O)N[C@@H](CCCNC(=N)N)C(=O)N[C@H](C(=O)N[C@@H](CCC(=O)O)C(=O)N[C@@H](CO)C(=O)O)[C@@H](C)O)C(C)C)[C@@H](C)CC)C(C)C)[C@@H](C)CC [LL-37] | 16.43 | – | – | – | – | – | – | – | – | – | –
2 | SEKTLRKWLKMFKKRQLELY (listed as Homo sapiens) [SEK20] | – | 16 ± 1 | 64 ± 2 | 17 ± 5 | 98 ± 2 | 38 ± 4 | 34 ± 4 | 14 ± 2 | – | – | –
3 | GKYGIYTKVSRYVNWIKEKTKLT (listed as Homo sapiens) [GKY23, FA9_HUMAN aa 439-461] | – | 30 ± 5 | 86 ± 4 | 19 ± 1 | 86 ± 7 | 29 ± 2 | 21 ± 2 | 7 ± 2 | – | – | –
4 | CC(C)C[C@H](NC(=O)[C@H](Cc1c[nH]c2ccccc12)NC(=O)[C@H](CCCCN)NC(=O)[C@H](CCCCN)NC(=O)[C@H](CC(C)C)NC(=O)[C@H](CCCNC(=N)N)NC(=O)[C@H](Cc1ccccc1)NC(=O)[C@@H](N)CC(C)C)C(=O)N[C@@H](CCC(N)=O)C(=O)N[C@@H](CCCCN)C(=O)N[C@H](C(=O)N[C@H](C(=O)N[C@@H](CCCCN)C(=O)N[C@@H](CCC(N)=O)C(=O)N[C@@H](Cc1ccccc1)C(=O)NCC(=O)N[C@@H](CCC(=O)O)C(=O)O)[C@@H](C)O)C(C)C [SEQ ID NO:34, LFRIKKWLQKVTKQFGE] | – | – | – | – | – | – | – | – | 4.75 | 6.65 | –
5 | CQKRYRGHKITHKMIC (listed as Homo sapiens) [CQK16, FA11_HUMAN aa 545-560] | – | 15 ± 2 | 18 ± 5 | 14 ± 4 | 64 ± 3 | 8 ± 2 | 10 ± 2 | 10 ± 2 | – | – | –
6 | NWRENLDRDIALMKLKKP (listed as Homo sapiens) [NVR18] | – | 0 ± 1 | 2 ± 1 | 0 ± 1 | 4 ± 1 | – | – | – | – | – | –
7 | LFRLKKWIRKVTRLFG [SEQ ID NO:9, LFRLKKWIRKVTRLFG] | – | – | – | – | – | – | – | – | 8.59 | 11.03 | displayed antimicrobial activity
